In patent publication US9340521B2, “Method for dual inhibition of SGLT1 and SGLT2 using diphenylmethane derivatives” (GREEN CROSS CORPORATION, priority 2013, dated 2016):

Assays:
Human SGLT2 (hSGLT2) = Human SGLT2 (hSGLT2) (Homo sapiens (Human), UniProt P31639); test: Inhibitory effects on human SGLT2 activities (14C-AMG uptake, sodium-dependent glucose transport assay); type: cell-based; conditions: hSGLT2-expressing CHO cells, 37° C. for 2 h, single determinations
Text: Test 1: Cloning and Cell Line Construction for Human SGLT2
Human SGLT2 (hSGLT2) gene was amplified by PCR from cDNA-Human Adult Normal Tissue Kidney (Invitrogen). The hSGLT2 sequence was cloned into pcDNA3.1(+) for mammalian expression and stably transfected into chinese hamster ovary (CHO) cells. SGLT2-expressing clones were selected based on resistance to G418 antibiotic (Geneticin) and activity in the ^14C-α-methyl-D-glucopyranoside (^14C-AMG) uptake assay.
Test 2: Inhibitory Effects on Human SGLT2 Activities
(§1) For sodium-dependent glucose transport assay, cells expressing hSGLT2 were seeded into a 96-well culture plate at a density of 5×10^4 cells/well in RPMI medium 1640 containing 10% fetal bovine serum. The cells were used 1 day after plating. They were incubated in pretreatment buffer (10 mM HEPES, 5 mM Tris, 140 mM choline chloride, 2 mM KCl, 1 mM CaCl2, and 1 mM MgCl2, pH 7.4) at 37° C. for 10 min. They were then incubated in uptake buffer (10 mM HEPES, 5 mM Tris, 140 mM NaCl, 2 mM KCl, 1 mM CaCl2, 1 mM MgCl2, and 1 mM ^14C-nonlabeled AMG pH 7.4) containing ^14C-labeled AMG (8 μM) and the inventive compound or dimethyl sulfoxide (DMSO) vehicle at 37° C. for 2 h. Cells were washed twice with washing buffer (pretreatment buffer containing 10 mM AMG at room temperature) and then the radioactivity was measured using a liquid scintillation counter. IC50 was determined by nonlinear regression analysis using GraphPad PRISM [Katsuno, K. et al. J. Pharmacol. Exp. Ther. 2007, 320, 323-330; Han, S. et al. Diabetes, 2008, 57, 1723-1729].

Human SGLT1 (hSGLT1) = Human SGLT1 (hSGLT1) (Homo sapiens (Human), UniProt P13866); test: Inhibitory effects on human SGLT1 activities (14C-AMG uptake, sodium-dependent glucose transport assay); type: cell-based; conditions: 37° C. for 2 h, single determinations
Experimental: Test 3: Inhibitory Effects on Human SGLT1 Activities
as §1, with “^14C-labeled” for “^14C-labeled AMG”, “inhibitor” for “the inventive compound”, “PRISM.” for “PRISM [Katsuno, K. et al. J. Pharmacol. Exp. Ther. 2007, 320, 323-330; Han, S. et al. Diabetes, 2008, 57, 1723-1729].”

Human SGLT2 (hSGLT2), sequence (P31639 whole entry): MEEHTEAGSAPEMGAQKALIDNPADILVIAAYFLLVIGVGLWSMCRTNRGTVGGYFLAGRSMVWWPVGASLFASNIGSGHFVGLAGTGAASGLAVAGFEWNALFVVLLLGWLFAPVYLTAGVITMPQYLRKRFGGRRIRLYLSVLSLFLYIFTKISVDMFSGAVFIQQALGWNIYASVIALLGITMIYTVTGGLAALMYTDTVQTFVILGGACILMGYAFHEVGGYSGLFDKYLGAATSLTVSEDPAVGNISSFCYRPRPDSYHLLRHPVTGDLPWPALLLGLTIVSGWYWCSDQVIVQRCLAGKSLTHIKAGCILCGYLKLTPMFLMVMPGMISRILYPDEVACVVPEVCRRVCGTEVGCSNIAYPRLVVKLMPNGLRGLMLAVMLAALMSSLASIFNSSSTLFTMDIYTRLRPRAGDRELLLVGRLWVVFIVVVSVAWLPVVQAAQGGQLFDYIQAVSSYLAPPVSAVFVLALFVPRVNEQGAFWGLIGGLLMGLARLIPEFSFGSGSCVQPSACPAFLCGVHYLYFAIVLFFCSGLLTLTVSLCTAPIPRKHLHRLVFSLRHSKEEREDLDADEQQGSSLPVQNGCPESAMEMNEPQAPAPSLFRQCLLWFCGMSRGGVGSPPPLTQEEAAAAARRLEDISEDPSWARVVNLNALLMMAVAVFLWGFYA
Human SGLT1 (hSGLT1), sequence (P13866 whole entry): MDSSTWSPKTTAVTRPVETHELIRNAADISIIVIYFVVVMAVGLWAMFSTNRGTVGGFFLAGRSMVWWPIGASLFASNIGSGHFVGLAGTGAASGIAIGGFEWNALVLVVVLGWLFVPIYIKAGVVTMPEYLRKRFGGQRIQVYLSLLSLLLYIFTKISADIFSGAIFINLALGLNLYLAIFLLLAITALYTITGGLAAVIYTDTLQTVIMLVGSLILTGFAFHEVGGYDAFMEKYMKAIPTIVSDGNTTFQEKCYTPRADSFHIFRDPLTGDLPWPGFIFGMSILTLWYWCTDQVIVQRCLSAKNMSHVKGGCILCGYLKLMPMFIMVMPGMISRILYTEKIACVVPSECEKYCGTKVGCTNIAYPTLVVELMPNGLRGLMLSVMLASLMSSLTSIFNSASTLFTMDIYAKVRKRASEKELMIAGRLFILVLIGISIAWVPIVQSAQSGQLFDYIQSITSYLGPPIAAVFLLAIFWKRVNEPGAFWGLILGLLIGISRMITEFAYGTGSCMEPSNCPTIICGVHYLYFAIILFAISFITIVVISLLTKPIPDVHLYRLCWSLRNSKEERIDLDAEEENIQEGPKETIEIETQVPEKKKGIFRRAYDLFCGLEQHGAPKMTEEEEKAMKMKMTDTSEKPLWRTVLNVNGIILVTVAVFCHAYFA

SMILES	IC50 (Human SGLT2 (hSGLT2)) [nM]	IC50 (Human SGLT1 (hSGLT1)) [nM]
CCOc1ccc(Cc2cc([C@@H]3O[C@H](CO)[C@@H](O)[C@H](O)[C@H]3O)c3c(c2Cl)C(C)CO3)cc1 (stereo partly drawn) [Compound E031, (2S,3R,4R,5S,6R)-2-(4-Chloro-5-(4-ethoxybenzyl)-3-methyl-2,3-dihydrobenzofuran-7-yl)-6-(hydroxymethyl)-tetrahydro-2H-pyran-3,4,5-triol]	2	196
COc1ccc(Cc2cc([C@@H]3O[C@H](CO)[C@@H](O)[C@H](O)[C@H]3O)c3c(c2C(F)F)CCC3)cc1 [Compound E032, (2S,3R,4R,5S,6R)-2-(7-(Difluoromethyl)-6-(4-methoxybenzyl)-2,3-dihydro-1H-inden-4-yl)-6-(hydroxymethyl)tetrahydro-2H-pyran-3,4,5-triol]	0.73	16.5
CCc1ccc(Cc2cc([C@@H]3O[C@H](CO)[C@@H](O)[C@H](O)[C@H]3O)c3c(c2Cl)CCC3)cc1 [Compound E033, (2S,3R,4R,5S,6R)-2-(7-Chloro-6-(4-ethylbenzyl)-2,3-dihydro-1H-inden-4-yl)-6-(hydroxymethyl)tetrahydro-2H-pyran-3,4,5-triol]	0.63	57.2
COc1ccc(Cc2cc([C@@H]3O[C@H](CO)[C@@H](O)[C@H](O)[C@H]3O)c3c(c2Cl)SCC3)cc1 [Compound E034, (2S,3R,4R,5S,6R)-2-(7-Chloro-6-(4-methoxybenzyl)-2,3-dihydrobenzo[b]thiophen-4-yl)-6-(hydroxymethyl)tetrahydro-2H-pyran-3,4,5-triol]	0.9	27.6
CCc1ccc(Cc2cc([C@@H]3O[C@H](CO)[C@@H](O)[C@H](O)[C@H]3O)c3c(c2Cl)SCC3)cc1 [Compound E035, (2S,3R,4R,5S,6R)-2-(7-Chloro-6-(4-ethylbenzyl)-2,3-dihydrobenzo[b]thiophen-4-yl)-6-(hydroxymethyl)tetrahydro-2H-pyran-3,4,5-triol]	0.87	53
COc1ccc(Cc2cc([C@@H]3O[C@H](CO)[C@@H](O)[C@H](O)[C@H]3O)c3c(c2Cl)SCCC3)cc1 [Compound E036, (2S,3R,4R,5S,6R)-2-(8-Chloro-7-(4-methoxybenzyl)thiochroman-5-yl)-6-(hydroxymethyl)tetrahydro-2H-pyran-3,4,5-triol]	0.55	10.7
COc1ccc(Cc2cc([C@@H]3O[C@H](CO)[C@@H](O)[C@H](O)[C@H]3O)c3c(c2C)CCCC3)cc1 [Compound E037, (2R,3S,4R,5R,6S)-2-(Hydroxymethyl)-6-(3-(4-methoxybenzyl)-4-methyl-5,6,7,8-tetrahydronaphthalen-1-yl)tetrahydro-2H-pyran-3,4,5-triol]	0.86	10.5
COc1ccc(Cc2cc([C@@H]3O[C@H](CO)[C@@H](O)[C@H](O)[C@H]3O)c3c(c2Cl)CCCC3)cc1 [Compound E038, (2S,3R,4R,5S,6R)-2-(4-Chloro-3-(4-methoxybenzyl)-5,6,7,8-tetrahydronaphthalen-1-yl)-6-(hydroxymethyl)tetrahydro-2H-pyran-3,4,5-triol]	0.6	9.6
CCOc1ccc(Cc2cc([C@@H]3O[C@H](CO)[C@@H](O)[C@H](O)[C@H]3O)c3c(c2Cl)CCCC3)cc1 [Compound E039, (2S,3R,4R,5S,6R)-2-(4-Chloro-3-(4-ethoxybenzyl)-5,6,7,8-tetrahydronaphthalen-1-yl)-6-(hydroxymethyl)tetrahydro-2H-pyran-3,4,5-triol]	0.62	33.2
Cc1ccc(Cc2cc([C@@H]3O[C@H](CO)[C@@H](O)[C@H](O)[C@H]3O)c3c(c2Cl)OCO3)cc1 [Compound E040, (2S,3R,4R,5S,6R)-2-(7-Chloro-6-(4-methylbenzyl)benzo[d][1,3]dioxol-4-yl)-6-(hydroxymethyl)tetrahydro-2H-pyran-3,4,5-triol]	1	94.6
Cc1ccc(Cc2cc3c(c([C@@H]4O[C@H](CO)[C@@H](O)[C@H](O)[C@H]4O)c2)CCC3)cc1 [Compound E041, (2R,3S,4R,5R,6S)-2-(Hydroxymethyl)-6-(6-(4-methylbenzyl)-2,3-dihydro-1H-inden-4-yl)tetrahydro-2H-pyran-3,4,5-triol]	8	91
Cc1ccc(Cc2cc([C@@H]3O[C@H](CO)[C@@H](O)[C@H](O)[C@H]3O)c3c(c2Cl)OCCO3)cc1 [Compound E042, (2S,3R,4R,5S,6R)-2-(8-chloro-7-(4-methylbenzyl)-2,3-dihydrobenzo[b][1,4]dioxin-5-yl)-6-(hydroxymethyl)tetrahydro-2H-pyran-3,4,5-triol]	1	9.2
CCc1ccc(Cc2cc([C@@H]3O[C@H](CO)[C@@H](O)[C@H](O)[C@H]3O)c3c(c2Cl)CCCC3)cc1 [Compound E043, (2S,3R,4R,5S,6R)-2-(4-Chloro-3-(4-ethylbenzyl)-5,6,7,8-tetrahydronaphthalen-1-yl)-6-(hydroxymethyl)tetrahydro-2H-pyran-3,4,5-triol]	0.49	32.6
CCc1ccc(Cc2cc([C@@H]3O[C@H](CO)[C@@H](O)[C@H](O)[C@H]3O)c3c(c2C)CCCC3)cc1 [Compound E044, (2S,3R,4R,5S,6R)-2-(3-(4-Ethylbenzyl)-4-methyl-5,6,7,8-tetrahydronaphthalen-1-yl)-6-(hydroxymethyl)tetrahydro-2H-pyran-3,4,5-triol]	0.59	10.4
Cc1ccc(Cc2cc([C@@H]3O[C@H](CO)[C@@H](O)[C@H](O)[C@H]3O)c3c(c2Cl)OCCC3)cc1 [Compound E045, (2S,3R,4R,5S,6R)-2-(8-Chloro-7-(4-methylbenzyl)chroman-5-yl)-6-(hydroxymethyl)tetrahydro-2H-pyran-3,4,5-triol]	1.9	36.7
Cc1ccc(Cc2cc([C@@H]3O[C@H](CO)[C@@H](O)[C@H](O)[C@H]3O)c3c(c2Cl)CCO3)cc1 [Compound E046, (2S,3R,4R,5S,6R)-2-(4-Chloro-5-(4-methylbenzyl)-2,3-dihydrobenzofuran-7-yl)-6-(hydroxymethyl)tetrahydro-2H-pyran-3,4,5-triol]	1.4	29.9
CCOc1ccc(Cc2cc([C@@H]3O[C@H](CO)[C@@H](O)[C@H](O)[C@H]3O)c3c(c2C)CCCC3)cc1 [Compound E047, (2S,3R,4R,5S,6R)-2-(3-(4-Ethoxybenzyl)-4-methyl-5,6,7,8-tetrahydronaphthalen-1-yl)-6-(hydroxymethyl)tetrahydro-2H-pyran-3,4,5-triol]	1.3	27.1
COc1ccc(Cc2cc([C@@H]3O[C@H](SC)[C@@H](O)[C@H](O)[C@H]3O)c3c(c2Cl)CCC3)cc1 [Compound E048, (2S,3R,4R,5S,6R)-2-(7-Chloro-6-(4-methoxybenzyl)-2,3-dihydro-1H-inden-4-yl)-6-(methylthio)tetrahydro-2H-pyran-3,4,5-triol]	0.5	33.7
CSc1ccc(Cc2cc([C@@H]3O[C@H](CO)[C@@H](O)[C@H](O)[C@H]3O)c3c(c2Cl)OCO3)cc1 [Compound E049, (2S,3R,4R,5S,6R)-2-(7-Chloro-6-(4-(methylthio)benzyl)benzo[d][1,3]dioxol-4-yl)-6-(hydroxymethyl)tetrahydro-2H-pyran-3,4,5-triol]	0.8	50.3
